Measured values: patent publication US9040530B2, “1,2,4-triazine-6-carboxamide kinase inhibitors” (Portola Pharmaceuticals, Inc., priority 2012, dated 2015)

Molecular target: T1, full length active recombinant SYK enzyme (Homo sapiens, UniProt P43405)
T1 construct: full length active recombinant SYK enzyme (Millipore, Calif.); purchased Millipore
Experiment: Inhibition of Syk tyrosine phosphorylation activity (LANCE TR-FRET kinase assay)
Format: biochemical
Conditions: 1 nM active SYK enzyme, 550 nM SYK-substrate, 100 μM ATP, 1 hour at room temperature

Row | Compound | IC50 [nM]
1 | CC[C@@H](Nc1nnc(C(N)=O)c(Nc2ccc3ccn(C)c3c2)n1)C(N)=O [Example 163, (R)-3-((1-amino-1-oxobutan-2-yl)amino)-5-((1-methyl-1H-indol-6-yl)amino)-1,2,4-triazine-6-carboxamide] | 10 to 100
2 | NC(=O)c1nnc(N)nc1Nc1cccc(-c2ncccn2)c1 [Example 92, 3-amino-5-((3-(pyrimidin-2-yl)phenyl)amino)-1,2,4-triazine-6-carboxamide] | > 1000
3 | Cc1ccc(Nc2nc(N[C@@H](C(N)=O)c3ccccc3)nnc2C(N)=O)cc1 [Example 191, (R)-3-(2-amino-2-oxo-1-phenylethylamino)-5-(p-tolylamino)-1,2,4-triazine-6-carboxamide] | 100 to 1000
4 | CC(C)C[C@@H](Nc1nnc(C(N)=O)c(Nc2ccc3ncccc3c2)n1)C(N)=O [Example 53, (R)-3-((1-amino-4-methyl-1-oxopentan-2-yl)amino)-5-(quinolin-6-ylamino)-1,2,4-triazine-6-carboxamide] | 1 to 10
5 | NC(=O)c1nnc(N[C@@H]2CCCC[C@@H]2N)nc1Nc1cccc(OC(F)F)c1 [Example 124, 3-(((1R,2S)-2-aminocyclohexyl)amino)-5-((3-(difluoromethoxy)phenyl)amino)-1,2,4-triazine-6-carboxamide] | 1 to 10
6 | CC(C)C[C@@H](Nc1nnc(C(N)=O)c(Nc2cncc(F)c2)n1)C(N)=O [Example 16, (R)-3-((1-amino-4-methyl-1-oxopentan-2-yl)amino)-5-((5-fluoropyridin-3-yl)amino)-1,2,4-triazine-6-carboxamide] | 100 to 1000
7 | CC[C@@H](Nc1nnc(C(N)=O)c(Nc2cccc3c2cnn3C)n1)C(N)=O [Example 107, (R)-3-((1-amino-1-oxobutan-2-yl)amino)-5-((1-methyl-1H-indazol-4-yl)amino)-1,2,4-triazine-6-carboxamide] | 10 to 100
8 | NC(=O)c1nnc(N[C@@H]2CCCC[C@@H]2N)nc1Nc1cccnc1 [Example 100, 3-(((1R,2S)-2-aminocyclohexyl)amino)-5-(pyridin-3-ylamino)-1,2,4-triazine-6-carboxamide] | 10 to 100
9 | CC[C@@H](Nc1nnc(C(N)=O)c(Nc2cccc(-n3nccn3)c2)n1)C(N)=O [Example 86, (R)-5-((3-(2H-1,2,3-triazol-2-yl)phenyl)amino)-3-((1-amino-1-oxobutan-2-yl)amino)-1,2,4-triazine-6-carboxamide] | 100 to 1000
10 | Cc1ccc(Nc2nc(N[C@@H]3CCCC[C@@H]3N)nnc2C(N)=O)cc1F [Example 19, 3-(((1R,2S)-2-aminocyclohexyl)amino)-5-((3-fluoro-4-methylphenyl)amino)-1,2,4-triazine-6-carboxamide] | 1 to 10
11 | CC[C@@H](Nc1nnc(C(N)=O)c(Nc2ccc(N3CCOCC3)c(F)c2)n1)C(N)=O [Example 31, (R)-3-((1-amino-1-oxobutan-2-yl)amino)-5-((3-fluoro-4-morpholinophenyl)amino)-1,2,4-triazine-6-carboxamide] | 10 to 100
12 | NC(=O)c1nnc(N[C@@H]2CCNC2)nc1Nc1ccc2ncccc2c1 [Example 57, (R)-3-(pyrrolidin-3-ylamino)-5-(quinolin-6-ylamino)-1,2,4-triazine-6-carboxamide] | 1 to 10
13 | CC[C@@H](Nc1nnc(C(N)=O)c(Nc2ccc3cn(C)nc3c2)n1)C(N)=O [Example 179, (R)-3-((1-amino-1-oxobutan-2-yl)amino)-5-((2-methyl-2H-indazol-6-yl)amino)-1,2,4-triazine-6-carboxamide] | 1 to 10
14 | Cn1ccc2cc(Nc3nc(N[C@@H]4CCCC(F)(F)[C@@H]4N)nnc3C(N)=O)cnc21 [Example 151, 3-(((1R,2R)-2-amino-3,3-difluorocyclohexyl)amino)-5-((1-methyl-1H-pyrrolo[2,3-b]pyridin-5-yl)amino)-1,2,4-triazine-6-carboxamide] | 100 to 1000
15 | Cn1ccc2c(Nc3nc(N[C@@H]4CCCC[C@@H]4N)nnc3C(N)=O)cncc21 [Example 148, 3-(((1R,2S)-2-aminocyclohexyl)amino)-5-((1-methyl-1H-pyrrolo[2,3-c]pyridin-4-yl)amino)-1,2,4-triazine-6-carboxamide] | 1 to 10
16 | NC(=O)c1nnc(N[C@@H]2CCCC[C@@H]2N)nc1Nc1cnc2ccc(F)cc2c1 [Example 122, 3-(((1R,2S)-2-aminocyclohexyl)amino)-5-((6-fluoroquinolin-3-yl)amino)-1,2,4-triazine-6-carboxamide] | 10 to 100
17 | NC(=O)c1nnc(N[C@@H]2CCCC(F)(F)[C@@H]2N)nc1Nc1ccc2ncsc2c1 [Example 43, 3-(((1R,2R)-2-amino-3,3-difluorocyclohexyl)amino)-5-(benzo[d]thiazol-6-ylamino)-1,2,4-triazine-6-carboxamide] | 10 to 100
18 | Cn1ccc2ccc(Nc3nc(N[C@@H]4CCCC(F)(F)[C@@H]4N)nnc3C(N)=O)cc21 [Example 166, 3-(((1R,2R)-2-amino-3,3-difluorocyclohexyl)amino)-5-((1-methyl-1H-indol-6-yl)amino)-1,2,4-triazine-6-carboxamide] | 10 to 100
19 | NC(=O)c1nnc(N[C@@H]2CCCC(F)(F)[C@@H]2N)nc1Nc1ccc2c(c1)CS(=O)(=O)C2 [Example 217, 3-(((1R,2R)-2-amino-3,3-difluorocyclohexyl)amino)-5-((2,2-dioxido-1,3-dihydrobenzo[c]thiophen-5-yl)amino)-1,2,4-triazine-6-carboxamide] | 100 to 1000
20 | CCC(=O)N1CCC(c2ccc(Nc3nc(N[C@@H]4CCCC[C@@H]4N)nnc3C(N)=O)cc2)CC1 [Example 28, 3-(((1R,2S)-2-aminocyclohexyl)amino)-5-((4-(1-propionylpiperidin-4-yl)phenyl)amino)-1,2,4-triazine-6-carboxamide] | 1 to 10
21 | CC(C)C[C@@H](Nc1nnc(C(N)=O)c(Nc2ccc3cc[nH]c3c2)n1)C(N)=O [Example 103, (R)-5-((1H-indol-6-yl)amino)-3-((1-amino-4-methyl-1-oxopentan-2-yl)amino)-1,2,4-triazine-6-carboxamide] | 1 to 10
22 | Cc1ccc(Nc2nc(N[C@@H]3CCOC[C@@H]3N)nnc2C(N)=O)cc1C [Example 145, 3-(((3R,4R)-3-aminotetrahydro-2H-pyran-4-yl)amino)-5-((3,4-dimethylphenyl)amino)-1,2,4-triazine-6-carboxamide] | 1 to 10
23 | N#Cc1ccc(Nc2nc(N[C@@H]3CCCC[C@@H]3N)nnc2C(N)=O)cc1F [Example 116, 3-(((1R,2S)-2-aminocyclohexyl)amino)-5-((4-cyano-3-fluorophenyl)amino)-1,2,4-triazine-6-carboxamide] | 10 to 100
24 | Cc1ccc(Nc2nc(N[C@@H]3CCOC[C@@H]3N)nnc2C(N)=O)cc1Cl [Example 225, 3-(((3R,4R)-3-aminotetrahydro-2H-pyran-4-yl)amino)-5-((3-chloro-4-methylphenyl)amino)-1,2,4-triazine-6-carboxamide] | 1 to 10
25 | NC(=O)c1nnc(N[C@@H]2CCCC[C@@H]2N)nc1Nc1cnn2ccccc12 [Example 35, 3-(((1R,2S)-2-aminocyclohexyl)amino)-5-(pyrazolo[1,5-a]pyridin-3-ylamino)-1,2,4-triazine-6-carboxamide] | 1 to 10
